Assay results from patent US9550740B2, “Antimicrobial compounds” (Dow Global Technologies LLC, priority 2012, dated 2017).

How the values were obtained:
Type in all cases: cell-based
[1] = test system: pool of aerobic organisms (mixed pool of 6 bacterial species); experiment: Biocidal efficacy at room temperature, aerobic bacteria; conditions: for minimum dose needed to achieve 3-log reduction in bacteria levels: aerobic bacteria, ppm glutaraldehyde equivalent, tested 200 to 12 ppm
Experimental: (§1) Assay for Biocidal Efficacy at Room Temperature: Glutaraldehyde and Compounds 1 and 4 are tested for biocidal activity against a pool of aerobic organisms at room temperature and against sulfate reducing bacteria (SRB) at room temperature. Tests are performed as follows:
(§2) a. Stock preparation. Glutaraldehyde (50% in water) and Compounds 1 and 4 are each dissolved in DMSO to a concentration of 200 mM, which is equivalent to 20,000 ppm of free glutaraldehyde.
(§3) b. Aerobic Bacteria—a mixed pool of 6 bacterial species at approximately 5×10^6 CFU/mL in phosphate buffered saline is distributed into a 96-well plate. Each well receives an independent chemical treatment of the tested compounds at concentrations ranging from 200 ppm to 12 ppm glutaraldehyde. A control treatment of DMSO alone is also included. Each condition is tested in triplicate. After set periods of incubation (1, 4, and 24 h), the number of surviving cells in each well are enumerated by dilution to extinction in a medium containing resazurin dye as an indicator. c. Sulfate Reducing Bacteria (SRB)—SRB testing is performed as for the aerobic bacteria with the following modifications: the species Desulfovibrio longus is tested in anaerobic PBS and the enumeration of surviving cells is performed in a medium containing soluble iron as an indicator. d. Results: Values indicate minimum the dose needed (in ppm) to achieve 3-log reduction in bacteria levels. “n/a” indicates the threshold is not met at any of the tested doses. “N.D.” indicates no data available.

[2] = test system: Thermus thermophilus (ATCC 27634); experiment: Biocidal efficacy at elevated temperature; conditions: for log kill of treated bacterial populations relative to an untreated control: 50 ppm glutaraldehyde equivalent
Experimental: Compound 1 is dissolved in DMSO to yield a 200 mM solution such that the glutaraldehyde-equivalent concentration of the stock solution is 20,000 ppm. The bacterial strain Thermus thermophilus (ATCC 27634) is maintained at 70° C. After 24-48 hours of growth, 10 mL of bacterial culture is harvested by spinning in a Beckman-Coulter benchtop centrifuge at 3000 rpm for 15 min. The cell pellet is resuspended in 100 mL of phosphate-buffered saline (PBS) to give approximately 5×10^5 CFU/mL and aliquoted into 10 mL portions in glass test tubes fitted with screw caps. Samples are equilibrated to 37, 55, or 70° C. for 30 min and then treated with glutaraldehyde or Compound 1 at 50 ppm glutaraldehyde equivalent. The treated samples are returned to their respective equilibration temperatures for 4 h and then enumerated for surviving bacteria. After 24 h, the process is repeated by adding fresh grown bacteria to the samples to re-challenge the biocide. The samples are again enumerated after 4 h. Results are reported in terms of log kill of treated bacterial populations relative to an untreated control at each temperature. For values listed as “>x,” actual kill may have been higher but could not be detected by this assay.

[3] = test system: sulfate reducing bacteria (SRB), Desulfovibrio longus; experiment: Biocidal efficacy at room temperature, sulfate reducing bacteria (SRB); conditions: for minimum dose needed to achieve 3-log reduction in bacteria levels: SRB, anaerobic PBS, ppm glutaraldehyde equivalent, tested 200 to 12 ppm; for activity against SRB (in words): compared with glutaraldehyde
Experimental: as §1, §2, §3

[4] = 37 C., 24 hr (re-challenge with fresh bacteria, enumerated after 4 h)
[5] = 55 C., 24 hr (re-challenge with fresh bacteria, enumerated after 4 h)
[6] = 70 C., 24 hr (re-challenge with fresh bacteria, enumerated after 4 h)

Row | SMILES | biocidal activity against aerobic bacteria (in words) [1] | minimum dose needed to achieve 3-log reduction in bacteria levels ([1]; 1 hour incubation) [ppm] | minimum dose needed to achieve 3-log reduction in bacteria levels ([1]; 4 hours incubation) [ppm] | minimum dose needed to achieve 3-log reduction in bacteria levels ([1]; 24 hours incubation) [ppm] | log kill of treated bacterial populations relative to an untreated control ([2]; 37 C., 4 hr) | log kill of treated bacterial populations relative to an untreated control [2, 4] | log kill of treated bacterial populations relative to an untreated control ([2]; 55 C., 4 hr) | log kill of treated bacterial populations relative to an untreated control [2, 5] | log kill of treated bacterial populations relative to an untreated control ([2]; 70 C., 4 hr) | log kill of treated bacterial populations relative to an untreated control [2, 6] | activity compared with glutaraldehyde (in words) ([2]; at each temperature tested (37, 55, 70 C.)) | minimum dose needed to achieve 3-log reduction in bacteria levels ([3]; 1 hour incubation) [ppm] | minimum dose needed to achieve 3-log reduction in bacteria levels ([3]; 4 hours incubation) [ppm] | activity against SRB (in words) [3] | minimum dose needed to achieve 3-log reduction in bacteria levels ([3]; 24 hours incubation) [ppm]
1 | CN1CCC(c2ccccc2)OC1CCCC1OC(c2ccccc2)CCN1C (centres unmarked) [Compound 1, 1,3-bis(3-methyl-6-phenyl-1,3-oxazinan-2-yl)propane] | significant biocidal activity | 59 | 26 | 40 | >3 | >4 | >3 | >3 | >4 | >4 | equivalent activity to glutaraldehyde | 133 | 133 | some activity | 
2 | CN1CCOC1CCCC1OCCN1C (centres unmarked) [Compound 4, 1,3-bis(3-methyloxazolidin-2-yl)propane] | limited activity |  | 200 | 200 |  |  |  |  |  |  |  | 200 | 133 | some activity | 
3 | O=CCCCC=O [glut, Glutaraldehyde, reference compound] |  | 26 | 26 | 26 | >3 | >4 | >3 | >3 | >4 | >4 |  | 89 | 18 |  | <12
